In PMC10818824, “In Vitro and In Silico Analysis of the Bindings between Legacy and Novel Per- and Polyfluoroalkyl Substances and Human Serum Albumin” (Toxics, 2024):

Molecular target: T1, HSA (human serum albumin) (Homo sapiens, UniProt P02768)
T1 construct: gene ALB; mature single chain of 585 residues, N-terminal Asp, C-terminal Leu; untagged; monomer
Assay: intrinsic fluorescence quenching, double-log fit
Format: binding
Design: unit not given here
Settings: Tris-HCl pH 7.4, room temperature, 30 min, ex 275 nm; ethanol stocks; KA unit not given
From the text: intrinsic fluorescence quenching, double-log fit on HSA (human serum albumin)

T1 sequence (P02768 25-609): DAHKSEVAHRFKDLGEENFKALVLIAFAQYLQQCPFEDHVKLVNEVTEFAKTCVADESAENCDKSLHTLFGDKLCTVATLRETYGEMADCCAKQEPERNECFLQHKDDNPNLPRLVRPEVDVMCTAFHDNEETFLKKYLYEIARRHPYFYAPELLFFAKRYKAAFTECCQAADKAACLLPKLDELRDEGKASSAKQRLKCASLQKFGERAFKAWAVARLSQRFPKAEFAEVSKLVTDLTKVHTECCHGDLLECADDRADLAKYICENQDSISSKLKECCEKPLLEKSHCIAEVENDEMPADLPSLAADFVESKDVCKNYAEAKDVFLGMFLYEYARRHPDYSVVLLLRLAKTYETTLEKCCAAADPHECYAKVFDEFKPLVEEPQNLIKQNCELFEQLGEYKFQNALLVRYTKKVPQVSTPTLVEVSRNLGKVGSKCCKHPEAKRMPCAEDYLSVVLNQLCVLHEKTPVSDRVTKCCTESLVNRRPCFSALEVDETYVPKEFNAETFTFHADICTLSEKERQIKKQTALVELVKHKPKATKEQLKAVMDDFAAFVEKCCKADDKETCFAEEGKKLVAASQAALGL

Structure (SMILES) | Binding Constant KA
O=S(=O)(O)C(F)(F)C(F)(F)OC(F)(F)C(F)(F)C(F)(F)C(F)(F)C(F)(F)C(F)(F)Cl [9Cl-PF3ONS, 9–chlorohexadecafluoro–3–oxanone–1–sulfonic acid] | 117.112
O=S(=O)(O)C(F)(F)C(F)(F)OC(F)(F)C(F)(F)C(F)(F)C(F)(F)C(F)(F)C(F)(F)C(F)(F)C(F)(F)Cl [11Cl-PF3OUdS, 11–chloroeicosafluoro–3–oxaundecane–1–sulfonic acid] | 127.6145
O=C(O)C(F)(F)C(F)OC(F)(F)C(F)(F)C(F)(F)OC(F)(F)F (centres unmarked) [NaDONA, sodium dodecafluoro-3H–4,8–dioxanonanoate] | 93.0894
O=C(O)C(F)(F)C(F)(F)C(F)(F)F [PFBA] | 20.3657
O=S(=O)(O)C(F)(F)C(F)(F)C(F)(F)C(F)(F)F [PFBS] | 116.4930
O=S(=O)(O)C(F)(F)C(F)(F)C(F)(F)C(F)(F)C(F)(F)C(F)(F)F [PFHxS] | 157.9429
O=S(=O)(O)C(F)(F)C(F)(F)C(F)(F)C(F)(F)C(F)(F)C(F)(F)C(F)(F)C(F)(F)F [PFOS] | 394.639
O=S(=O)(O)C(F)(F)C(F)(F)C(F)(F)F [PFPrS] | 79.4511
